Our source for the IC50 values is US6541468B1, “Indolocarbazole derivatives useful for the treatment of neurodegenerative diseases and cancer” (Bayer Corporation, priority 1998, dated 2003).

Read-outs that look alike come from different tables or passages of the source.

This assay deals with tau hyperphosphorylation. Nature of the assay: Okadaic acid induced AD-like tau hyperphosphorylation in rat hippocampal brain slices. In kind it is cell-based. Here is the method:
Adult male Long-Evans rats were subjected to CO2 anesthesia and sacrificed by decapitation. Brains were rapidly removed (<2 min) and whole hippocampus was dissected using a blunt spatula. Hippocampi were cut into […] slices using a Mcllwain tissue chopper and placed into ice cold low Ca^2+ Krebs-Bicarbonate buffer (pH 7.) of the following composition in mM: NaCl, 124; KCL, 3.33; CaCl2, 0.01; KH2PO4, 1.25; MgSO4, 1.33; nAhco3, 25.7; D-glucose, 10; HEPES, 20. The slices were separated and placed, 5-8 per tube, into 5 mL of low Ca^2+ buffer and incubated for at least 30 min at 33-34° C. with water saturated oxygenation (95% O2, 5% CO2). After 30 min the solution was replaced with buffer containing a physiological level of Ca^2+ (1.3 mM) and incubated for an additional 30 min.
After a total equilibration period of at least 1 hr, the slices were pretreated with vehicle or inhibitor at concentrations ranging from 30 nM to 10 μM for 1 hr, and then exposed to either vehicle or okadaic acid fora 90 min. After treatment, the buffer was removed and the slices were sonicated for 10-20 see in 500 μl of homogenization buffer (100 mM KH2PO4, pH 6.5, 2 mM EGTA, 2 mM EDTA, 1 μM okadaic acid and the following protease inhibitors: aprotinin (10 μg/ml); leupeptin (10 μM); chymostatin (40 μM); PMSF (100 μM) and pepstatin (6 μg/ml).
Following sonication, the samples were centrifuged 16,000×g for 30 min and the supernatants were removed. After boiling of the supernatants for 5 mn at 100° C. the concentration of protein was determined by the BCA assay (Pierce) using BSA as standard and samples were normalized to equal protein concentration.
Aliquots of the heat stable supernatants were separated on 10% SDS-PAGE and Western-blotted with phosphorylation-sensitive tau mAb Tau-1 and PHF-tau mAb AT8 as described for SY5Y studies. Blots were developed by an ECL kit (Amersham Life Science). AT8 immunoreactivity was quantitated on Kodak X0OMAT AR film using a Biorad imaging densitometer GS 670, the strongest signals not exceeding an O.D. of 12.

Setting [1] is: adult rat hippocampal slices, means of triplicate determinations, read-out: Inhibition of tau hyperphos. in brain slices IC50.

For orientation: IC50 means the concentration that gives 50% inhibition. As for `CNC(=O)[C@]1(O)CC2CC1n1c3ccccc3c3c4c(c5c6ccccc6n2c5c31)C(=O)NC4=O` (stereo partly drawn) [CII, 9,12-Methano-1H-diindolo[1,2,3-fg:3′,2′,1′-kl]pyrrolo[3,4-I][1,6] benzodiazocine-10-carboxamide, 2,3,9,10,11,12-hexahydro-10-hydroxy-N-methyl-1,3-dioxo-(9α,10β,12α)], the IC50 reads like this: (adult rat hippocampal brain slices, FIG. 5, read-out: IC50 for prevention of tau hyperphosphorylation in brain slices) 100 nM; under setting [1], 180 nM.
For the molecule `COC(=O)[C@@]1(O)C[C@H]2C[C@@H]1n1c3ccccc3c3c4c(c5c6ccccc6n2c5c31)C(=O)NC4=O` (relative stereo) [CIII, 9,12-Methano-1H-diindolo[1,2,3-fg:3′,2′,1′-kl]pyrrolo[3,4-I][1,6] benzodiazocine-10-carboxylic acid, 2,3,9,10,11,12-hexahydro-10-hydroxy-1,3-dioxomethyl ester, (9α,10β,12α)], the IC50 under setting [1] turned out to be 900 nM.
